Assay type in all cases: biochemical
For test [1], the target named is T1, h-CAXII (Homo sapiens, UniProt O43570).
T1 construct: His (N); host or cells: HEK 293 T
Put plainly: Inhibition assay for carbonic anhydrase XII. The conditions noted are these: for IC50: n = 3, read-out: CAXII IC50 (µM) ± SEM. The procedure:
(§1) Expression of enzyme protein was done according to previously reported protocol. Briefly, transfection was carried out for CA-II, IX, and XII by using vectors pCMV3-N-His, pCMV3-SP-HIS-ORF, and pCMV3-N-His obtained from Sino Biologicals Inc., respectively. […] When cells gained about 80–90% confluency, they were washed twice with PBS and transfected with 0.2 µg plasmid solution. Cells were incubated for 6 h in 5% CO2 incubator, followed by the addition of fresh growth media. Cells were again incubated for 24 h. Hygromycin B (0.2 mg/mL) was used as a selection antibiotic for transfected cells. Cells were harvested after five days and lysed. Then desired proteins were purified via Ni–NTA resin using imidazole as affinity. SDS PAGE was carried out to confirm the molecular weight of purified protein.
(§2) The CA isozymes inhibition assay was performed according to the reported method after some modifications. Assay buffer was prepared that contained 50 mM tris-sulfate, 0.1 mM ZnCl2, and pH was adjusted at 7.6. Initially, 60 µL assay buffer was added in each well of 96 wells plate, 10 µL test compound (final concentration 100 µM), and followed by the addition of 10 µL working enzyme solution. The reaction mixture was incubated for 10 min at 37 °C. […] Then 20 µL of the substrate (6 mM) was added to the reaction mixture to initiate the reaction. The reaction mixture was incubated at 37 °C for 30 min, and absorbance was measured again. […] Results were reported as the mean of triplicate experiments (± SEM). The % inhibition was calculated by following the formula. Inhibition%=100-ODtestcompound/ODcontrol×100

Test [2] has as its target T2, h-CAII (Homo sapiens, UniProt P00918).
T2 construct: His (N); host or cells: HEK 293 T
Nature of the test: Inhibition assay for carbonic anhydrase II. The settings on record: for IC50: n = 3, read-out: CAII IC50 (µM) ± SEM. The procedure:
as §1, §2

Test [3] deals with T3, b-TNAP (Bos taurus, UniProt P09487).
T3 sequence (P09487 18-524): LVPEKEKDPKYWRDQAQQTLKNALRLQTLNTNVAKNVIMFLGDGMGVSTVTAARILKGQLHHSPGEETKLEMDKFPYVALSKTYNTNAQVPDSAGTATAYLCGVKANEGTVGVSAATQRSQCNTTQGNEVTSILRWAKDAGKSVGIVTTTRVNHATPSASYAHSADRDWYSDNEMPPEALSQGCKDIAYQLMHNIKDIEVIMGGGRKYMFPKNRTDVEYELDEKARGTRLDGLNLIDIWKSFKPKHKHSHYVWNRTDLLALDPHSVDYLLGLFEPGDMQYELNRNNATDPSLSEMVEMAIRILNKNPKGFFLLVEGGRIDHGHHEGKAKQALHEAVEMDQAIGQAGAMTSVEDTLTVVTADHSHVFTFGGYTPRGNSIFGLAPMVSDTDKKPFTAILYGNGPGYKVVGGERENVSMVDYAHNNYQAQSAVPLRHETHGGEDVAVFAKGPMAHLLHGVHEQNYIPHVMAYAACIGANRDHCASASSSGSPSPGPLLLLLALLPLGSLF
Nature of the test: Alkaline phosphatase inhibition assay (b-TNAP, p-NPP substrate). The conditions noted are these: for IC50: n = 3, read-out: b-TNAP IC50 (µM) ± SEM; for inhibition at 100 µM: read-out: b-TNAP % Inhibition. The method, then:
The assay was based on previously reported protocol. […] All the solutions were made in assay buffer comprising Tris-HCl (50 mM), ZnCl2 (0.1 mM) and MgCl2 (5 mM) and pH was adjusted at 9.5. […] Assay was started by adding 70 μL of assay buffer in each well of 96 wells flat bottom clear microplate, followed by adding 10 μL of test compound and 10 μL of working enzyme solution. The reaction mixture was incubated at 37 °C for 10 min and absorbance was measured by a microplate reader (Bio-[…], Instruments, Inc. USA) at 405 nm. The reaction was started by adding 10 μL of 5 mM p-NPP (para-nitrophenolphosphate) as substrate. […] Following formula was used to calculate the percentage of inhibition of test compounds.

Test [4] has as its target T4, h-CAIX (Homo sapiens, UniProt Q16790).
T4 construct: His (N); host or cells: HEK 293 T
Put plainly: Inhibition assay for carbonic anhydrase IX. The settings on record: for IC50: n = 3, read-out: CAIX IC50 (µM) ± SEM. The method, then:
as §1, §2

Test [5] deals with c-IAP (Bos taurus, UniProt P19111). Nature of the test: Alkaline phosphatase inhibition assay (c-IAP, p-NPP substrate). The method, then: [1, 8]-Naphthyridine derivatives were screened for inhibitor potential towards b-TNAP and c-IAP. The assay was based on previously reported protocol. […]. All the solutions were made in assay buffer comprising Tris–HCl (50 mM), ZnCl2 (0.1 mM) and MgCl2 (5 mM) and pH was adjusted at 9.5. Working solutions of both enzymes were prepared in assay buffer containing 50% of glycerol. The final concentration of b-TNAP and c-IAP were kept at 0.025 U/mL and 0.05 U/mL, respectively. Assay was started by adding 70 µL of assay buffer in each well of 96 wells flat bottom clear microplate, followed by adding 10 µL of test compound and 10 µL of working enzyme solution. The reaction mixture was incubated at 37 °C for 10 min and absorbance was measured by a microplate reader (Bio-TekELx 800™, Instruments, Inc. USA) at 405 nm. The reaction was started by adding 10 µL of 5 mM p-NPP (para-nitrophenolphosphate) as substrate. […]. Following formula was used to calculate the percentage of inhibition of test compounds. Inhibition%=100-ODtestcompound/ODcontrol×100

Setting [6] is: 100 µM final concentration of compound.

“And” between values parts separate entries of the source, which are not always exact repeats. Equal entries are not always repeated. Where two headings read alike, the source gives them in different places.

Consider 14 compounds from publication PMC10599030, “[1, 8]-Naphthyridine derivatives as dual inhibitor of alkaline phosphatase and carbonic anhydrase” (BMC Chemistry, 2023).

T1 sequence (O43570 25-354): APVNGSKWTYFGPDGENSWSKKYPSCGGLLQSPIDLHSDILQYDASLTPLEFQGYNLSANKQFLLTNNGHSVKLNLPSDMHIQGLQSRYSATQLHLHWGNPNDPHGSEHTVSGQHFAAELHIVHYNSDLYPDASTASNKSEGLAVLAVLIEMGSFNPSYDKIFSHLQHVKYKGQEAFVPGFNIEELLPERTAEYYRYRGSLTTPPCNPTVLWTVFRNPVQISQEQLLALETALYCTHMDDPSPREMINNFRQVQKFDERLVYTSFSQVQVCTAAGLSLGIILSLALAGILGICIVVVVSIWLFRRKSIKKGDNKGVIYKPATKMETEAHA
Sequence of c-IAP (P19111 20-506): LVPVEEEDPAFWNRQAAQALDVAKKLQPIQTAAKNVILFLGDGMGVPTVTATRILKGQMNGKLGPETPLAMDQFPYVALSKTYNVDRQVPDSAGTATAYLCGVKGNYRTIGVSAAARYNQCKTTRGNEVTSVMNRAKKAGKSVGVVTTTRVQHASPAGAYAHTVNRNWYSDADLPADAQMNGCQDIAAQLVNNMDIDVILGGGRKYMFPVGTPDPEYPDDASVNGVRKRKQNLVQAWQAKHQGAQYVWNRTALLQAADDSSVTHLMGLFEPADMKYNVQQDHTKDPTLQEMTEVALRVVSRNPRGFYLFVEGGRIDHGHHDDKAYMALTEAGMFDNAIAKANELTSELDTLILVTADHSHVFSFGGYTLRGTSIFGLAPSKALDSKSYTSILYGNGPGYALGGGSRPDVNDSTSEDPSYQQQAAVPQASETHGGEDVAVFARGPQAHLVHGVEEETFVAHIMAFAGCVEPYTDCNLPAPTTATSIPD

For orientation: IC50 means the concentration at which inhibition is half-maximal. With `c1ccc(-c2cc3cccnc3n3cccc23)cc1` [Compound 1a], the IC50 in test [1] was determined as 0.32 ± 0.07 µM; in test [2], 1.28 ± 0.16 µM; in test [3], 0.38 ± 0.09 µM; in test [4] it was 0.86 ± 0.47 µM.
As to `CC(C)(C)c1ccc(-c2cc3cccnc3n3cccc23)cc1` [Compound 1b], the half-inhibitory concentration (IC50) was 1.51 ± 0.72 µM in test [1]; 1.26 ± 0.44 µM in test [2]; 0.122 µM and 0.12 µM in test [3]. Further, in test [3] (ratio of IC50 values), the “Times more potent as compared to Levamisole (standard inhibitor of TNAP)” value was 160 times.
`Fc1ccc(-c2cc3cccnc3n3cccc23)cc1` [Compound 1c]: the IC50 came to 0.96 ± 0.28 µM in test [1], 0.9 ± 0.5 µM in test [2], 1.01 ± 0.31 µM in test [3] and 0.7 ± 0.27 µM in test [4].
Usually inhibition stands for how much of the control response was suppressed. As to `Cc1ccc(-c2cc3cccnc3n3cccc23)cc1` [Compound 1d], in test [1], the “Activity against CA-XII in words” value was “marked activity” and the IC50 was 2.4 ± 0.98 µM. Also, the “Activity against CA-II in words” value in test [2] is “inactive”. In addition, the inhibition at 100 µM in test [3] is below 30%. Also, in test [4], the “Activity against CA-IX in words” value was “marked activity” and the concentration for half-maximal inhibition (IC50) is 1.36 ± 0.48 µM.
For the compound `CCCCc1cc2cccnc2n2cccc12` [Compound 1e], the concentration for half-maximal inhibition (IC50) in test [1] was found to be 0.51 ± 0.41 µM; in test [2] it was 0.44 ± 0.19 µM; in test [3], 0.32 ± 0.11 µM; in test [4], 1.61 ± 0.26 µM.
As for `COc1ccc(-c2cc3cccnc3n3cccc23)cc1` [Compound 1f], the IC50 in test [1] was 4.3 ± 2.2 µM; in test [3], 0.14 ± 0.12 µM; in test [4], 0.99 ± 0.12 µM.
Turning to `COc1cccc(-c2cc3cccnc3n3cccc23)c1` [Compound 1g], the IC50 in test [1] was 3.05 ± 0.92 µM; in test [2], 0.1 ± 0.04 µM; in test [3], 0.63 ± 0.47 µM; in test [4], 0.11 ± 0.03 µM.
On to `COc1ccc(-c2cc3cccnc3n3cccc23)c(C)c1` [Compound 1h], for which the concentration for half-maximal inhibition (IC50) was determined as 0.8 ± 0.69 µM in test [1], 1.46 ± 0.96 µM in test [2] and 0.74 ± 0.51 µM in test [4]. In test [5], the “Activity against c-IAP in words” value is listed as “complete loss of activity”. Also, the results for the inhibition at 100 µM in test [5] (read-out: c-IAP % Inhibition) and in test [3] (setting [6]) were 37% and 33%, respectively. In addition, in test [3], the “Activity against b-TNAP in words” value is listed as “loss of activity”.
In the case of `Cc1cccc(-c2cc3cccnc3n3cccc23)c1` [Compound 1i], in test [1], the “Activity against CA-XII in words” value is “significant activity” and the 50% inhibitory concentration (IC50) stood at 0.46 ± 0.12 µM. Further, in test [2], the “Activity against CA-II in words” value was “inactive”. For the same compound, in test [3], the “Activity against b-TNAP in words” value is on record as “loss of activity” and the inhibition at 100 µM was below 30%. For the same compound, in test [4], the “Activity against CA-IX in words” value is listed as “significant activity” and the half-maximal inhibitory concentration (IC50) came out at 0.87 ± 0.51 µM.
Consider `Fc1ccccc1-c1cc2cccnc2n2cccc12` [Compound 1j], for which the IC50 in test [1] turned out to be 0.51 ± 0.26 µM; in test [2], 2.14 ± 0.3 µM; in test [4] it was 1.65 ± 0.98 µM. The “Activity against b-TNAP in words” value in test [3] is reported as “loss of activity”. In addition, the inhibition at 100 µM in test [3] was below 20%.
`c1cnc2c(c1)cc(-c1ccsc1)c1cccn12` [Compound 1k]: the half-maximal inhibitory concentration (IC50) was 1.8 ± 0.42 µM in test [1], 1.63 ± 0.55 µM in test [2] and 0.36 ± 0.07 µM in test [3]. The compound further displayed a CAIX % inhibition in test [4] (setting [6]) of 35.1%. Further, in test [4] (setting [6]), the inhibition at 100 µM was below 50%.
`c1cnc2c(c1)cc(C1CCCCC1)c1cccn12` [Compound 1l]: the IC50 in test [1] was found to be 1.5 ± 0.31 µM; in test [2], 1.99 ± 0.71 µM; in test [3] it was 0.24 ± 0.06 µM; in test [4], 3.2 ± 1.52 µM.
On to `N[C@@H](Cc1ccccc1)C(=O)O` [L-phenyl alanine, reference compound], for which the 50% inhibitory concentration (IC50) in test [5] (n = 3, read-out: c-IAP IC50 (µM) ± SEM) came to 80.21 ± 0.001 µM.
In the case of `c1ccc([C@H]2CN3CCSC3=N2)cc1` [Levamisole, reference compound], in test [3], the IC50 is 19.21 ± 0.001 µM.
